Results from PubChem BioAssay AID330 (DTP/NCI, 2004).
Toxic doses and inconclusive results are not listed. The calls were made as follows: active = survival T/C of 150% or more; inactive = T/C below 125% in these data. Peptide text beside a SMILES is read from it.

System: P388 leukemia ip, CD2F1 mice, survival T/C
Assay: NCI In Vivo Anticancer Drug Screen. Data for tumor model P388 Leukemia (intraperitoneal) in CD2F1 (CDF1) mice
Conditions: endpoint: median survival time, higher = longer survival
Method: The antitumor activity of compounds was measured in mice bearing transplantable tumors. Survival or tumor size were measured and the results are expressed as the measurement made in the treated group (T) divided by the measurement made in the vehicle treated control group (C). The tumor model used in this assay is P388 Leukemia (intraperitoneal) in CD2F1 (CDF1) mice

[1] = dose: 25.0 mg/kg/injection, schedule: Q01DX009 (ip), vehicle: saline with Tween-80
[2] = dose: 50.0 mg/kg/injection, schedule: Q01DX009 (ip), vehicle: saline with Tween-80
[3] = dose: 100.0 mg/kg/injection, schedule: Q01DX009 (ip), vehicle: saline with Tween-80
[4] = dose: 50.0 mg/kg/injection, schedule: Q01DX005 (ip), vehicle: saline with Tween-80
[5] = dose: 100.0 mg/kg/injection, schedule: Q01DX005 (ip), vehicle: saline with Tween-80
[6] = dose: 200.0 mg/kg/injection, schedule: Q01DX005 (ip), vehicle: saline with Tween-80
[7] = dose: 60.0 mg/kg/injection, schedule: Q01DX005 (ip), vehicle: Klucel (hydroxypropylcellulose) (HPC)
[8] = dose: 120.0 mg/kg/injection, schedule: Q01DX005 (ip), vehicle: Klucel (hydroxypropylcellulose) (HPC)
[9] = dose: 50.0 mg/kg/injection, schedule: Q01DX005 (ip), vehicle: Klucel (hydroxypropylcellulose) (HPC)
[10] = dose: 100.0 mg/kg/injection, schedule: Q01DX005 (ip), vehicle: Klucel (hydroxypropylcellulose) (HPC)
[11] = dose: 200.0 mg/kg/injection, schedule: Q01DX005 (ip), vehicle: Klucel (hydroxypropylcellulose) (HPC)
[12] = dose: 100.0 mg/kg/injection, schedule: Q01DX005 (ip), vehicle: saline

Measured: T/C

O=C(O)CC1CC=CCC1CC(=O)O (stereo not given)
inactive: dose: 100.0 mg/kg/injection, schedule: Q01DX001 (ip), vehicle: saline sonified 100 % of control | dose: 200.0 mg/kg/injection, schedule: Q01DX001 (ip), vehicle: saline sonified 100 % of control | dose: 400.0 mg/kg/injection, schedule: Q01DX001 (ip), vehicle: saline sonified 105 % of control

C[Si](C)(C)C#CC[Si](C)(C)C
inactive: dose: 60.0 mg/kg/injection, schedule: Q01DX005 (ip), vehicle: saline with Tween-80 97 % of control | dose: 120.0 mg/kg/injection, schedule: Q01DX005 (ip), vehicle: saline with Tween-80 100 % of control | dose: 240.0 mg/kg/injection, schedule: Q01DX005 (ip), vehicle: saline with Tween-80 106 % of control

C[C@@H]1CC2=CC(=O)CC[C@@H]2[C@H]2CC[C@@]3(C)[C@@H](CC[C@]3(C)O)[C@@H]21
inactive: [1] 100 % of control | dose: 25.0 mg/kg/injection, schedule: Q04DX003 (ip), vehicle: saline with Tween-80 100 % of control | [2] 105 % of control | dose: 50.0 mg/kg/injection, schedule: Q04DX003 (ip), vehicle: saline with Tween-80 91 % of control | [3] 105 % of control | dose: 100.0 mg/kg/injection, schedule: Q04DX003 (ip), vehicle: saline with Tween-80 104 % of control | dose: 200.0 mg/kg/injection, schedule: Q04DX003 (ip), vehicle: saline with Tween-80 100 % of control | dose: 400.0 mg/kg/injection, schedule: Q04DX003 (ip), vehicle: saline with Tween-80 90 % of control

CCc1c(COC(=O)NC)c(COC(=O)NC)cc2c1[nH]c1ccccc12
inactive: [4] 88 % of control | [5] 88 % of control | [6] 89 % of control

CSC(/C=C1\C=Cc2ccccc2N1C)=N\S(=O)(=O)c1ccc(N)cc1
inactive: dose: 25.0 mg/kg/injection, schedule: Q04DX002 (ip), vehicle: saline with Tween-80 107 % of control | dose: 50.0 mg/kg/injection, schedule: Q04DX002 (ip), vehicle: saline with Tween-80 100 % of control | dose: 100.0 mg/kg/injection, schedule: Q04DX002 (ip), vehicle: saline with Tween-80 102 % of control

COC(=O)NN(C(=O)OC)C12CCCC1N(C(=O)OC)N(C(=O)OC)c1c2ccc2ccccc12 (stereo not given)
inactive: [7] 103 % of control | [8] 103 % of control | dose: 240.0 mg/kg/injection, schedule: Q01DX005 (ip), vehicle: Klucel (hydroxypropylcellulose) (HPC) 96 % of control

CC(C)(C)OC(=O)NC(CCCCNC(=O)OCC1c2ccccc2-c2ccccc21)C(=O)O (stereo not given)
inactive: [9] 103 % of control | [10] 99 % of control | [11] 103 % of control

CCOc1nc(=O)[nH]c2c1CCCC2
inactive: [7] 98 % of control | [8] 98 % of control

CCOC(=O)Nc1nc2ccccc2n1CN1CCN(c2ccccc2)CC1
inactive: dose: 25.0 mg/kg/injection, schedule: Q01DX005 (ip), vehicle: Klucel (hydroxypropylcellulose) (HPC) 92 % of control | [9] 95 % of control | [10] 100 % of control

Cc1ccccc1C(C)(C#N)Nc1ccccc1 (stereo not given)
inactive: [3] 100 % of control | dose: 200.0 mg/kg/injection, schedule: Q01DX009 (ip), vehicle: saline with Tween-80 113 % of control | dose: 400.0 mg/kg/injection, schedule: Q01DX009 (ip), vehicle: saline with Tween-80 100 % of control

CNC1C(O)C(OC2C(N)CC(N)C(OC3OC(CN)=CCC3N)C2O)OCC1(C)O (stereo not given)
inactive: dose: 62.5 mg/kg/injection, schedule: Q01DX009 (ip), vehicle: saline 104 % of control | dose: 125.0 mg/kg/injection, schedule: Q01DX009 (ip), vehicle: saline 104 % of control

COc1ccc(/C=C2\N=C(c3ccccc3)OC2=O)c(OCc2ccccc2)c1
inactive: dose: 12.5 mg/kg/injection, schedule: Q01DX009 (ip), vehicle: other 88 % of control | dose: 25.0 mg/kg/injection, schedule: Q01DX009 (ip), vehicle: other 89 % of control | dose: 100.0 mg/kg/injection, schedule: Q01DX009 (ip), vehicle: other 88 % of control | dose: 200.0 mg/kg/injection, schedule: Q01DX009 (ip), vehicle: other 94 % of control

O=C(Nc1cccc2ccccc12)C1C(=O)C(=O)N(c2cccc3ccccc23)C1=O (stereo not given)
inactive: dose: 50.0 mg/kg/injection, schedule: Q01DX009 (ip), vehicle: Klucel (hydroxypropylcellulose) (HPC) 103 % of control | dose: 100.0 mg/kg/injection, schedule: Q01DX009 (ip), vehicle: Klucel (hydroxypropylcellulose) (HPC) 105 % of control | dose: 200.0 mg/kg/injection, schedule: Q01DX009 (ip), vehicle: Klucel (hydroxypropylcellulose) (HPC) 100 % of control

COc1ccc2c(c1)C(=O)/C(=N\O)C2
inactive: [9] 92 % of control | [10] 101 % of control | [11] 92 % of control

CCOC(=O)C(=CNc1cccc(N(C)C)c1)C(=O)OCC
inactive: [4] 100 % of control | [5] 92 % of control | [6] 100 % of control

CC1=Nc2cc(Cl)c(Cl)cc2N(C)/C1=C/C1=C(Cl)C(=O)c2ccccc2C1=O
inactive: dose: 6.25 mg/kg/injection, schedule: Q01DX009 (ip), vehicle: saline with Tween-80 114 % of control | dose: 12.5 mg/kg/injection, schedule: Q01DX009 (ip), vehicle: saline with Tween-80 95 % of control | [1] 107 % of control | [2] 105 % of control | [3] 104 % of control

Nc1[nH][nH]c(=O)c1N
inactive: dose: 50.0 mg/kg/injection, schedule: Q01DX005 (ip), vehicle: saline 101 % of control | [12] 101 % of control | dose: 200.0 mg/kg/injection, schedule: Q01DX005 (ip), vehicle: saline 107 % of control

CC(N)C(=O)NC(Cc1ccc(O)cc1)C(N)=O (stereo not drawn) (H-Ala-Tyr-NH2; configuration not given here)
inactive: [9] 108 % of control | [10] 105 % of control | [11] 100 % of control

O=[N+]1C=Cc2ccccc2C1=C1c2ccccc2C=CN1[O-]
inactive: dose: 25.0 mg/kg/injection, schedule: Q01DX005 (ip), vehicle: saline with Tween-80 101 % of control | [4] 97 % of control | [5] 103 % of control

Cc1c(N)nc(C(CC(N)=O)NCC(N)C(N)=O)nc1C(=O)NC(C(=O)NC(C)C(O)C(C)C(=O)NC(C(=O)NCCc1nc(-c2nc(C(=O)NCCCNCCCCN)cs2)cs1)C(C)O)C(OC1OC(CO)C(O)C(O)C1OC1OC(CO)C(O)C(OC(N)=O)C1O)c1cnc[nH]1 (stereo not given)
inactive: dose: 12.5 mg/kg/injection, schedule: Q01DX005 (ip), vehicle: saline 117 % of control | [12] 104 % of control
